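Interpolation was linear, between the two tested concentrations surrounding the appropriate level; five concentrations were tested over 48 hours in 96-well plates. The concentration for 50% growth inhibition is given as GI50.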 Activity calls are given as the source filed them. No stated cut-off is given here; in the data, active = GI50 up to about 1.1 µM and inactive = higher.
Assays:
Assay in all cases: NCI-60 cell line screen, 48 h
SF-295 = test system: SF-295
OVCAR-8 = test system: OVCAR-8
COLO 205 = test system: COLO 205
CAKI-1 = test system: CAKI-1
UO-31 = test system: UO-31
NCI-H522 = test system: NCI-H522
RXF 393 = test system: RXF 393
NCI/ADR-RES = test system: NCI/ADR-RES
A498 = test system: A498
UACC-257 = test system: UACC-257
KM12 = test system: KM12
UACC-62 = test system: UACC-62
SN12C = test system: SN12C
OVCAR-5 = test system: OVCAR-5
DU-145 = test system: DU-145
A549 = test system: A549
HCC 2998 = test system: HCC 2998
RPMI-8226 = test system: RPMI-8226
MCF7 = test system: MCF7
Malme-3M = test system: Malme-3M

Measured: GI50

CSc1nc(-c2cc3c(c(SC)n2)CCC3)cc2c1CCC2
inactive: SF-295 > 100 µM | OVCAR-8 > 100 µM | COLO 205 > 100 µM | CAKI-1 > 100 µM | UO-31 > 100 µM | NCI-H522 > 100 µM | RXF 393 > 100 µM | NCI/ADR-RES > 100 µM | A498 > 100 µM | UACC-257 > 100 µM | KM12 > 100 µM | UACC-62 > 100 µM | SN12C > 100 µM | OVCAR-5 > 100 µM | DU-145 > 100 µM | A549 > 100 µM | HCC 2998 > 100 µM | RPMI-8226 > 100 µM

O=c1[nH]c2nc3ccccc3c(=O)n2/c1=C/c1cccs1
inactive: SF-295 > 100 µM | OVCAR-8 > 100 µM | COLO 205 > 100 µM | CAKI-1 > 100 µM | UO-31 > 100 µM | NCI-H522 > 100 µM | RXF 393 > 100 µM | NCI/ADR-RES > 100 µM | MCF7 > 100 µM | UACC-257 > 100 µM | KM12 70.3 µM | UACC-62 > 100 µM | SN12C > 100 µM | OVCAR-5 > 100 µM | DU-145 > 100 µM | A549 > 100 µM | HCC 2998 > 100 µM | Malme-3M > 100 µM | RPMI-8226 > 100 µM

CC(=O)/C(=C\I)c1ccccc1
inactive: SF-295 19.1 µM | OVCAR-8 1.82 µM | COLO 205 1.71 µM | UO-31 3.85 µM | RXF 393 1.66 µM | NCI/ADR-RES 10 µM | MCF7 1.8 µM | A498 17.7 µM | UACC-257 3.04 µM | KM12 3.57 µM | UACC-62 1.77 µM | SN12C 1.99 µM | OVCAR-5 1.49 µM | DU-145 3.38 µM | A549 15.7 µM | Malme-3M 1.67 µM | RPMI-8226 2.03 µM

CCC(C)C(C(=O)N/N=C1/SCC(=O)N1c1ccccc1)C(=O)N/N=C1/SCC(=O)N1c1ccccc1 (stereo unspecified)
inactive: SF-295 > 100 µM | OVCAR-8 39.7 µM | COLO 205 > 100 µM | CAKI-1 > 100 µM | UO-31 > 100 µM | NCI-H522 56.9 µM | RXF 393 16.4 µM | NCI/ADR-RES > 100 µM | MCF7 34.1 µM | UACC-257 > 100 µM | KM12 27.5 µM | UACC-62 20 µM | SN12C > 100 µM | OVCAR-5 > 100 µM | DU-145 43.5 µM | A549 > 100 µM | HCC 2998 > 100 µM | Malme-3M 21.2 µM

CC(C)(C)OC(=O)CC(NC(=O)OC(C)(C)C)C(=O)N[C@@H]1CCCC[C@H]1C(=O)OCc1ccccc1 (stereo partly specified)
inactive: SF-295 24.7 µM | OVCAR-8 28.8 µM | COLO 205 19.3 µM | CAKI-1 38.4 µM | UO-31 24.2 µM | NCI-H522 > 10 µM | RXF 393 > 100 µM | NCI/ADR-RES 33.3 µM | MCF7 26.9 µM | UACC-257 30.2 µM | KM12 30.1 µM | UACC-62 16.2 µM | SN12C 18.2 µM | OVCAR-5 26.2 µM | DU-145 32.5 µM | A549 25.2 µM | HCC 2998 20.6 µM | Malme-3M 33.7 µM | RPMI-8226 20.5 µM

CCN(CC)C1Oc2cc3c(cc2C(c2cccc(OC)c2OC)C1C)OCO3 (stereo unspecified)
inactive: SF-295 3.16 µM | OVCAR-8 3.56 µM | COLO 205 3.85 µM | CAKI-1 2.82 µM | UO-31 4.21 µM | NCI-H522 4.13 µM | RXF 393 2.23 µM | MCF7 5.08 µM | A498 5.81 µM | UACC-257 3.95 µM | KM12 4.9 µM | UACC-62 11.4 µM | SN12C 5.4 µM | OVCAR-5 13 µM | DU-145 3.23 µM | A549 4.46 µM | HCC 2998 11.3 µM | Malme-3M 8.51 µM | RPMI-8226 1.48 µM

CCOC(=O)c1nc2ccccc2nc1Nc1ccc(OC)c(OC)c1
inactive: SF-295 > 100 µM | COLO 205 > 100 µM | CAKI-1 > 100 µM | UO-31 > 100 µM | NCI-H522 > 100 µM | NCI/ADR-RES > 100 µM | MCF7 > 100 µM | KM12 > 100 µM | UACC-62 > 100 µM | SN12C > 100 µM | OVCAR-5 > 100 µM | DU-145 > 100 µM | A549 > 100 µM | HCC 2998 > 100 µM | Malme-3M > 100 µM | RPMI-8226 > 100 µM

Cc1c(Cl)c(=O)oc2cc(OCC(O)COC(C)C)ccc12 (stereo unspecified)
inactive: SF-295 64.4 µM | OVCAR-8 33.7 µM | COLO 205 14 µM | CAKI-1 > 10 µM | UO-31 40.3 µM | NCI-H522 > 100 µM | NCI/ADR-RES 75.7 µM | MCF7 22 µM | UACC-257 74 µM | KM12 50.5 µM | UACC-62 74.6 µM | OVCAR-5 > 100 µM | DU-145 99.5 µM | A549 42.2 µM | HCC 2998 16.8 µM | Malme-3M 20 µM | RPMI-8226 50.6 µM

O=C(O)CN(CCNC(=O)OCC1c2ccccc2-c2ccccc21)CCNC(=O)OCC1c2ccccc2-c2ccccc21
inactive: SF-295 25 µM | OVCAR-8 20.1 µM | COLO 205 20.8 µM | UO-31 22.1 µM | NCI-H522 17.2 µM | RXF 393 36.1 µM | NCI/ADR-RES 45.2 µM | MCF7 18 µM | UACC-257 29.2 µM | KM12 18.6 µM | UACC-62 23.7 µM | SN12C 25 µM | OVCAR-5 33.3 µM | DU-145 19.9 µM | A549 23.3 µM | HCC 2998 35.6 µM | Malme-3M 22.3 µM | RPMI-8226 25.4 µM

CC(=O)OC1(C)N=NC2(CCCCC2)O1 (stereo unspecified)
inactive: SF-295 > 100 µM | OVCAR-8 > 100 µM | COLO 205 > 100 µM | CAKI-1 > 100 µM | NCI-H522 > 100 µM | RXF 393 > 100 µM | NCI/ADR-RES > 100 µM | MCF7 > 100 µM | A498 > 100 µM | UACC-257 > 100 µM | KM12 > 100 µM | UACC-62 > 100 µM | SN12C > 100 µM | OVCAR-5 > 100 µM | DU-145 > 100 µM | A549 > 100 µM | Malme-3M > 100 µM | RPMI-8226 > 100 µM

CN(Cc1cnc2nc(N)nc(N)c2n1)c1ccc(C(=O)NC2CCCCC2)cc1
inactive: SF-295 32.4 µM | OVCAR-8 14.2 µM | COLO 205 31.3 µM | CAKI-1 63.7 µM | UO-31 87.3 µM | RXF 393 33 µM | NCI/ADR-RES > 100 µM | MCF7 29 µM | A498 24.4 µM | UACC-257 21.3 µM | KM12 26.9 µM | UACC-62 8.2 µM | SN12C 75 µM | OVCAR-5 74.3 µM | DU-145 37.6 µM | Malme-3M 20.9 µM | RPMI-8226 > 100 µM

— ChEMBL document CHEMBL1201862, “PubChem BioAssay data set” (2004)
